Data set [1] deals with HMGB1. Kind of data set: HMGB1 release screen, Nano-Glo HiBiT extracellular detection. Format: cell-based. To be noted: extracellular luminescence. The procedure: Construction of pBiT3.1-HMGB1 Plasmid
(§1) HMGB1 derived from pCMV6-AC-GFP plasmid (ref. RG205918, Origene) was amplified by PCR using the following set of primers: Seq ID No 1: forward, 5′-[…]-3′; Seq ID No 2: reverse, 5′-[…]-3′. The PCR fragment was subsequently digested by EcoRI and XhoI (R3101S and R0146S respectively, New England Biolabs) and inserted between the EcoRI and XhoI sites in the plasmid pBiT3.1-C(ref. N237A, Promega). The resulting plasmid (pBiT3.1-HMGB1) was grown in NEB10-beta competent E. coli (ref. C3019I, New England Biolabs) and purified using the NucleoBond Xtra Midi Kit (ref. 740410, Macherey-Nagel).
Construction of HMGB1 Reporter Cell Line
pBiT3.1-HMGB1 was transfected in MDA-MB-231 cells (ref. ATCC HTB-2) using Lipofectamine 2000 reagent (ref. 11668, Invitrogen). Transfected cells were selected for blasticidin resistance (15 μg/ml, ref. Al 113903 Gibco) in medium containing DMEM 1× (ref. 1995065, Gibco) with 1% penicillin and streptomycin, and 10% fetal bovine serum.
Screen for HMGB1-Releasing Drugs
MDA-MB-231 cells stably expressing HMGB1-HiBiT (10^4 cells/well) were seeded into white 96-well plates (ref.3917, Corning) and allowed to recover for 24h. […] Mitoxantrone dihydrochloride (ref. M6545, Sigma-Aldrich) was used as a positive control. Extracellular translocation of HMGB1 was measured using the Nano-Glo HiBiT extracellular detection system (ref. N2422, Promega). Nano-Glo HiBiT Extracellular Reagent was prepared in advance, added to the well and incubated 10 min. Luminescence of the extracellular HMGB1-HiBiT was quantified using the Spark 20M spectrofluorimeter (TECAN)
(In general: The HiBiT peptide binds its large partner to form an active luciferase.)

Data set [2] deals with Calreticulin. Kind of data set: Calreticulin release (ER to plasma membrane translocation) screen, Nano-Glo HiBiT extracellular detection. It counts as cell-based. Particulars: extracellular luminescence, read-out: CalR EC50. The procedure: as §1, with “Construction of pBiT3.1-Calreticulin Plasmid Calreticulin” for “HMGB1”, “pCMV6-AC” for “pCMV6-AC-GFP”, “SC320287,” for “RG205918,”, “3:” for “1:”, “4:” for “2:”, “(pBiT3.1-Calreticulin)” for “(pBiT3.1-HMGB1)”
Construction of Calreticulin Reporter Cell Line
pBiT3.1-Calreticulin was transfected in MDA-MB-231 cells (ref. ATCC HTB-2) using Lipofectamine 2000 reagent (ref. 11668, Invitrogen). Transfected cells were selected for blasticidin resistance (15 μg/ml, ref. Al 113903 Gibco) in medium containing DMEM 1× (ref. 1995065, Gibco) with 1% penicillin and streptomycin, and 10% fetal bovine serum.
Screen for Calreticulin-ER to Plasma Membrane Translocating Drugs
MDA-MB-231 cells stably expressing Calreticulin-HiBiT (10^4 cells/well) were seeded into white 96-well plates (ref.3917, Corning) and allowed to recover for 24h. […] Mitoxantrone dihydrochloride (ref. M6545, Sigma-Aldrich) was used as a positive control. Extracellular translocation of Calreticulin was measured using the Nano-Glo HiBiT extracellular detection system (ref. N2422, Promega). Nano-Glo HiBiT Extracellular Reagent was prepared in advance, added to the well and incubated 10 min.
Luminescence of the extracellular Calreticulin-HiBiT was quantified using the Spark 20M spectrofluorimeter (TECAN).

The mark [3] stands for this setting: Homo sapiens, MDA-MB-231, MDA-MB-231 cells stably expressing HMGB1-HiBiT.
[4] abbreviates: Homo sapiens, MDA-MB-231, MDA-MB-231 cells stably expressing Calreticulin-HiBiT.
Setting [5] is: MDA-MB-231 cells stably expressing HMGB1-HiBiT.
[6] abbreviates: MDA-MB-231 cells stably expressing Calreticulin-HiBiT.

Read-outs that look alike come from different tables or passages of the source.

This is an account of results in patent US20230150978A1, “QUINAZOLINONE DERIVATIVES AND USES THEREOF FOR TREATING A CANCER” (ENYO PHARMA, priority 2020, published 2023).

By EC50 is commonly meant the midpoint of the concentration-response curve. By melting point is commonly meant the temperature of the solid-liquid transition.

For `COc1cccc2c1N(Cc1nc3ccc(Cl)cc3c(=O)[nH]1)CCC2` [Ex. #54, 6-chloro-2-[(8-methoxy-3,4-dihydro-2H-quinolin-1-yl)methyl]-3H-quinazolin-4-one], the melting point lay in the range of 183 to 194 °C. Besides, in data set [1] (setting [3]), the EC50 worked out at 3.06 µM. In addition, in data set [2] (setting [4]), the EC50 is 1.76 µM.

Compound `COc1ccc2nc(CN3CCc4c(cccc4C(F)(F)F)C3)[nH]c(=O)c2c1` [Ex. #125, 6-methoxy-2-[[5-(trifluoromethyl)-3,4-dihydro-1H-isoquinolin-2-yl]methyl]-3H-quinazolin-4-one] registered a melting point of 196 to 206 °C. The same compound yielded an EC50 in data set [1] (setting [3]) of 15.9 µM. Further, the EC50 in data set [2] (setting [4]) was 9.76 µM.

`CC1CN(Cc2nc3ccc(Cl)cc3c(=O)[nH]2)c2ccccc21` (stereo not shown) [Ex. #37, 6-chloro-2-[(3-methylindolin-1-yl)methyl]-3H-quinazolin-4-one] came in with a melting point of 200 to 223 °C. Also, the EC50 in data set [1] (setting [3]) amounted to 3.16 µM. Also, in data set [2] (setting [4]), the EC50 was determined as 1.16 µM.

In turn, `COc1ccc2nc(CN3CCCCc4ccccc43)[nH]c(=O)c2c1` [Ex. 22, 6-methoxy-2-(2,3,4,5-tetrahydro-1-benzazepin-1-ylmethyl)-3H-quinazolin-4-one] had a melting point of 191 to 206 °C. The EC50 in data set [1] (setting [3]) stood at 0.429 µM. For the same compound, in data set [2] (setting [4]), the EC50 worked out at 0.339 µM.

`CC1(C)CN(Cc2nc3cc4c(cc3c(=O)[nH]2)OCO4)c2ccccc21` [Ex. #119, 6-[(3,3-dimethylindolin-1-yl)methyl]-7H-[1,3]dioxolo[4,5-g]quinazolin-8-one] yielded a melting point of 199 to 221 °C. Further, a half-maximal response in data set [1] (setting [3]) (EC50) required 7.56 µM. Besides, the EC50 in data set [2] (setting [4]) is 6.16 µM.

Take `COc1ccc2nc(CN3CCc4cccc(F)c43)[nH]c(=O)c2c1` [Ex. #8, 2-[(7-fluoroindolin-1-yl)methyl]-6-methoxy-3H-quinazolin-4-one]: the melting point lay within 208 to 227 °C. The compound also registered a 50% effective concentration (EC50) in data set [1] (setting [3]) of 8.36 µM. For the same compound, in data set [2] (setting [4]), the EC50 is 5.66 µM.

For the compound `CN(C)c1cc2c(=O)[nH]c(CN3CC(C)(C)c4ccccc43)nc2cn1` [Ex. #92, 6-(dimethylamino)-2-[(3,3-dimethylindolin-1-yl)methyl]-3H-pyrido[3,4-d]pyrimidin-4-one], the melting point was 194 to 211 °C. This compound yielded a half-maximal effective concentration (EC50) in data set [1] (setting [3]) of 0.14 µM. In data set [2] (setting [4]), the EC50 stood at 0.0988 µM.

`COc1cc2c(=O)[nH]c(CN3CC(C)(C)c4ccccc43)nc2cc1F` [Ex. #77, 2-[(3,3-dimethylindolin-1-yl)methyl]-7-fluoro-6-methoxy-3H-quinazolin-4-one] showed a melting point of 194 to 209 °C. In data set [1] (setting [3]), this compound came in with an EC50 of 0.15 µM. Also, the EC50 in data set [2] (setting [4]) turned out to be 0.15 µM.

In turn, `COc1ccc2nc(CN3CCCc4cccc(F)c43)[nH]c(=O)c2c1` [Ex. #11, 2-[(8-fluoro-3,4-dihydro-2H-quinolin-1-yl)methyl]-6-methoxy-3H-quinazolin-4-one] gave a melting point of 222 to 236 °C. The EC50 in data set [1] (setting [3]) came out at 0.109 µM. The EC50 in data set [2] (setting [4]) was 0.102 µM.

With `COc1ccc2nc(CN3CCc4c(cccc4OC)C3)[nH]c(=O)c2c1` [Ex. #17, 6-methoxy-2-[(5-methoxy-3,4-dihydro-1H-isoquinolin-2-yl)methyl]-3H-quinazolin-4-one], the melting point was in the range of 204 to 218 °C. The compound further showed an EC50 in data set [1] (setting [3]) of 6.06 µM. Moreover, the 50% effective concentration (EC50) in data set [2] (setting [4]) worked out at 0.54 µM.

`COc1ccc2nc(CN3CCCc4cccc(OC)c43)[nH]c(=O)c2c1` [Ex. #13, 6-methoxy-2-[(8-methoxy-3,4-dihydro-2H-quinolin-1-yl)methyl]-3H-quinazolin-4-one] returned a melting point of 169 to 183 °C. For the same compound, in data set [1] (setting [3]), the EC50 is 0.752 µM. In data set [2] (setting [4]), the EC50 was found to be 1.14 µM.

With `O=c1[nH]c(CN2CCc3ccccc32)nc2ccc(N3CCC(CO)C3)cc12` (stereo not shown) [Ex. #104, 6-[3-(hydroxymethyl)pyrrolidin-1-yl]-2-(indolin-1-ylmethyl)-3H-quinazolin-4-one], the EC50 in data set [1] (setting [3]) amounted to 3.46 µM; in data set [2] (setting [4]), 2.16 µM.

Regarding `COc1ccc2nc(CN3CC(C)c4ccccc43)[nH]c(=O)c2c1` (single isomer, unassigned) [Ex. #4, 6-methoxy-2-[(3-methylindolin-1-yl)methyl]-3H-quinazolin-4-one], the EC50 in data set [1] (setting [5]) was found to be 0.207 µM; in data set [2] (setting [6]) it was 0.172 µM.

`COc1ccc2nc(CN3CCc4c(F)cccc43)[nH]c(=O)c2c1` [Ex. #126, 2-[(4-fluoroindolin-1-yl)methyl]-6-methoxy-3H-quinazolin-4-one]: the melting point was in the range of 222 to 232 °C. Moreover, the EC50 in data set [2] (setting [4]) came to 8.06 µM.

Consider `CC1CN(Cc2nc3ccc(Cl)cc3c(=O)[nH]2)c2ccccc21` (single isomer, unassigned) [Ex. #39, 6-chloro-2-[(3-methylindolin-1-yl)methyl]-3H-quinazolin-4-one], for which the EC50 in data set [1] (setting [5]) was determined as 10.4 µM; in data set [2] (setting [6]) it was 8.06 µM.

As to `COc1cc(OC)c2nc(CN3CC(C)(C)c4ccccc43)[nH]c(=O)c2c1` [Ex. #94, 2-[(3,3-dimethylindolin-1-yl)methyl]-6,8-dimethoxy-3H-quinazolin-4-one], the EC50 in data set [1] (setting [3]) turned out to be 5.76 µM; in data set [2] (setting [4]) it was 3.06 µM.

Consider `COc1cc2c(=O)[nH]c(CN3CC(C)(C)c4ccccc43)nc2cc1Cl` [Ex. #93, 7-chloro-2-[(3,3-dimethylindolin-1-yl)methyl]-6-methoxy-3H-quinazolin-4-one], for which the EC50 came to 0.15 µM in data set [1] (setting [3]) and 0.0975 µM in data set [2] (setting [4]).

Consider `CN(C)c1ccc2nc(CN3CCc4ccccc43)[nH]c(=O)c2c1` [Ex. #73, 6-(dimethylamino)-2-(indolin-1-ylmethyl)-3H-quinazolin-4-one], for which the EC50 in data set [1] (setting [3]) turned out to be 0.275 µM; in data set [2] (setting [4]) it was 0.253 µM.

In the case of `O=c1[nH]c(CN2CCc3ccccc32)nc2ccc(N3CCCCC3)cc12` [Ex. #106, 2-(indolin-1-ylmethyl)-6-(1-piperidyl)-3H-quinazolin-4-one], the values for the EC50 in data set [1] (setting [3]) and in data set [2] (setting [4]) were 11.1 µM and 8.46 µM, respectively.

As to `Cc1cccc2c1CCCN2Cc1nc2ccc(Cl)cc2c(=O)[nH]1` [Ex. #53, 6-chloro-2-[(5-methyl-3,4-dihydro-2H-quinolin-1-yl)methyl]-3H-quinazolin-4-one], the EC50 came out at 2.51 µM in data set [1] (setting [3]) and 0.73 µM in data set [2] (setting [4]).

With `COc1ccc2c(=O)[nH]c(CN3CCc4ccccc43)nc2c1` [Ex. #86, 2-(indolin-1-ylmethyl)-7-methoxy-3H-quinazolin-4-one], the values for the EC50 in data set [1] (setting [3]) and in data set [2] (setting [4]) were 3.86 µM and 2.56 µM, respectively.

Regarding `O=c1[nH]c(CN2Cc3ccccc3C2)nc2ccc(Cl)cc12` [Ex. #50, 6-chloro-2-(isoindolin-2-ylmethyl)-3H-quinazolin-4-one], the EC50 in data set [1] (setting [3]) came out at 11.6 µM; in data set [2] (setting [4]), 4.66 µM.

Take `COc1ccc(OC)c2c1CN(Cc1nc3ccc(Cl)cc3c(=O)[nH]1)CC2O` (stereo not shown) [Ex. #61, 6-chloro-2-[(4-hydroxy-5,8-dimethoxy-3,4-dihydro-1H-isoquinolin-2-yl)methyl]-3H-quinazolin-4-one]: the EC50 in data set [1] (setting [3]) came out at 3.86 µM; in data set [2] (setting [4]), 0.45 µM.

With `COc1ccc2c(c1)CCN2Cc1nc2ccc(Cl)cc2c(=O)[nH]1` [Ex. #144, 6-chloro-2-((5-methoxyindolin-1-yl)methyl)quinazolin-4(3H)-one], the EC50 in data set [1] (setting [3]) worked out at 14.6 µM; in data set [2] (setting [4]), 9.71 µM.

Consider `Cc1ccc2c(c1)N(Cc1nc3ccc(Cl)cc3c(=O)[nH]1)CCC2` [Ex. #127, 6-chloro-2-[(7-methyl-3,4-dihydro-2H-quinolin-1-yl)methyl]-3H-quinazolin-4-one], for which the figures for the EC50 in data set [1] (setting [3]) and in data set [2] (setting [4]) were 13.4 µM and 6.96 µM, respectively.
